Tests used:
[1] = test system: wheat embryo cell-free protein synthesis; assay: Wheat embryo cell-free protein synthesis, batch method, 14C-leucine incorporation with DHFR mRNA; format: biochemical; details: for Inhibition of protein synthesis, nucleotide added alone: 0.5 mM AMP or 0.25 mM GMP alone, not shown in figures; for Effect of standard sugar on protein synthesis: final concentration 0.5 mM, FIG. 2C; for Effect on protein synthesis when added back in an equivalent amount to highly functionalized protein synthesis solution: filtrate or components isolated from filtrate, FIG. 1B/2B; for Time until protein synthesis reaction terminated after adding back: filtrate or filtrate-derived component added in equivalent amount
Procedure: To an embryo extract solution, components necessary for translation were added and adjusted to prepare a translation reaction solution (30 mM HEPES-KOH, pH7.8, 100 mM potassium acetate, 2.7 mM magnesium acetate, 1.2 mM ATP, 0.25 mM GTP, 0.4 mM spermidine, 16 mM phosphocreatine, 40 μg/ml creatine kinase, 4 mM dithiothreitol, each 0.3 mM 19 kinds of leucine-lacking L-amino acids, and 0.005% sodium azide). The concentration of the embryo extract solution was 40 OD 260 nm per 1 ml of translation reaction solution). To this translation reaction solution, mRNA encoding dihydrofolate reductase (DHFR) (0.32 mg/ml) and ^14C-leucine were added, and protein synthesis was conducted at 26° C. through a batch method. The amount of synthesized protein was determined by measuring radioactivity of ^14C-labeled leucine incorporated into an acid-insoluble fraction as follows: a 3MM Whatman filter was blotted with […] of the reaction solution, and the filter was dipped into an ice-cold 10% TCA (trichloroacetic acid) for an hour, and then boiled in 5% TCA solution for 10 minutes. This filter was recovered and from which TCA and water were removed using ethanol and ether (50:50 vol), dried, and then radioactivity incorporated into a heat-TCA-insoluble fraction was measured by a liquid scintillation counter (toluene scintillator).
Using these embryo extracts, following the method described in Example 1, and under a condition where the concentration of extract solution was 40 OD 260 nm, protein synthesis was conducted and their synthesis activities were compared. The activities of protein synthesis were determined by measuring radioactivities of ^14C/5 μL reaction solution, wherein ^14C had been incorporated into a heat-acid-insoluble fraction after a three hour-long reaction. As gelfiltration operation proceeded, the concentration of glucose in an extract solution was decreased, and completely corresponding to that, the activity of protein synthesis was increased, and simultaneously an extremely stabilized reaction solution for protein synthesis was produced.

ATP in reaction solution = assay: Temporal change of ATP concentration during protein synthesis reaction (cellulose thin layer chromatography, UV 260 nm); format: biochemical, wheat; details: for Concentration of ATP in system after adding sugar: 0.5 mM, within an hour after reaction, data not shown
Procedure: Next, to study the relation between decrease in concentration of ATP and the inhibition and destabilization mechanism of protein synthesis reaction, temporal changes of concentration of ATP under incubation was measured in the present and absence of glucose. Experiment was conducted on chromatography using a cellulose thin layer plate (Avicel: purchased from Funakoshi Co., Ltd) and a developing solvent of isobutyric acid:0.5 M ammonia (5:3). Using a synthesis system prepared with an extract solution treated through Amicon ultramembrane six times, protein synthesis reaction was conducted with or without adding glucose (1 mM), and to samples fractionated with time, an equivalent amount of cold ethanol was added, then supernatants obtained from centrifugation at 10,000×g were used to fractionate nucleotides on a thin layer plate. Using standard nucleotides from a conventional method as a fractionation marker, ATP was extracted from fractions, which was scraped out from fluorescent blots visualized with irradiation of ultraviolet ray, and the values of ultraviolet absorption at 260 nm were measured, thereby temporary changes of concentration of ATP in a reaction solution were determined. In an experiment where glucose was not added, as reaction proceeded, the concentration of ATP in the reaction solution was decreased (large ● in FIG. 3B) and in three hours after the reaction, decreased to around 60%. Kinetics of this decrease in concentration of ATP is well consistent with a decrease in the concentration of glucose (● in FIG. 3A). […] Though data are not shown, when protein synthesis reaction was conducted using an extract solution of 25 OD 260 nm, a decrease in the concentration of ATP was hardly shown until four hours after reaction, and along with it, the protein synthesis reaction was sustained linearly almost for four hours.

[2] = test system: wheat embryo cell-free protein synthesis; assay: Stability of protein synthesis activity after 3 h preincubation at 26° C. without mRNA, then solution exchange; format: biochemical; details: 0.5 mM, no mRNA or 14C-leucine during incubation, FIG. 2C
Procedure: Next, destabilization of protein synthesis was further examined. Namely, samples obtained before and after Amicon ultra-centrifugal filtration as described above (but mRNA and ^14C-leucine had not been contained), were incubated for three hours at 26° C. (hereinafter, described as preincubation), and then both reaction solutions were respectively passed through Sephadex G25 spin column which had been equilibrated with a translation solution (containing amino acids, energy sources, various ions and buffer) for changing to a fresh translation solution, and after that, mRNA and ^14C-leucine were added to measure the activity of protein synthesis.
Next, to confirm the destabilization phenomena of protein synthesis system resulting from the addition glucose and preincubation, the system was incubated in the presence of 0.5 mM glucose (the system contained neither mRNA or ^14C-leucine) and the stability was examined in the same manner as explained in FIG. 1B.

Structure (SMILES): Nc1ncnc2c1ncn2[C@@H]1O[C@H](COP(=O)(O)O)[C@@H](O)[C@H]1O [AMP]
- Inhibition of protein synthesis, nucleotide added alone [1]: inhibition of protein synthesis was not exhibited

Structure (SMILES): Nc1nc2c(ncn2[C@@H]2O[C@H](COP(=O)(O)O)[C@@H](O)[C@H]2O)c(=O)[nH]1 [GMP]
- Inhibition of protein synthesis, nucleotide added alone [1]: inhibition of protein synthesis was not exhibited

Structure (SMILES): O=C[C@@H](O)[C@H](O)[C@@H](O)[C@@H](O)CO [L-glucose]
- Effect of standard sugar on protein synthesis [1]: no inhibitory effects
- ATP remained after adding sugar (ATP in reaction solution; 1 mM added, FIG. 3B): ~50%

Structure (SMILES): C=C(OP(=O)(O)O)C(=O)O [Phosphoenolpyruvic acid]
- Effect of standard sugar on protein synthesis [1]: no inhibitory effects on protein synthesis

Structure (SMILES): O=C(CO)[C@@H](O)[C@H](O)[C@H](O)CO [fructose]
- Effect of standard sugar on protein synthesis [1]: strong protein synthesis inhibitory effects
- Concentration of ATP in system after adding sugar (ATP in reaction solution): below the detection limit

Structure (SMILES): O=C[C@H](O)[C@@H](O)[C@@H](O)[C@H](O)CO [galactose]
- Effect of standard sugar on protein synthesis [1]: strong protein synthesis inhibitory effects
- Concentration of ATP in system after adding sugar (ATP in reaction solution): below the detection limit

Structure (SMILES): O=C[C@H](O)[C@@H](O)[C@H](O)[C@H](O)CO [glucose, D-glucose]
- Effect on protein synthesis when added back in an equivalent amount to highly functionalized protein synthesis solution [1]: strong inhibitory and destabilization effects
- Time until protein synthesis reaction terminated after adding back [1]: two
- Effect of standard sugar on protein synthesis [1]: strong protein synthesis inhibitory effects
- Protein synthesis capacity after preincubation in the presence of sugar [2]: irreversibly inactivates a protein synthesis capacity
- ATP in the reaction solution after adding sugar (ATP in reaction solution; 1 mM added, in an hour, FIG. 3B): almost all ATP in the reaction solution was consumed

Structure (SMILES): O=C[C@H](O)[C@@H](O)[C@H](O)[C@H](O)COP(=O)(O)O [glucose-6-phosphate]
- Effect of standard sugar on protein synthesis [1]: strong protein synthesis inhibitory effects

Structure (SMILES): CC(=O)C(=O)O [pyruvic acid]
- Effect of standard sugar on protein synthesis [1]: no inhibitory effects on protein synthesis

Structure (SMILES): OC[C@H]1O[C@H](OC[C@H]2O[C@H](O[C@]3(CO)O[C@H](CO)[C@@H](O)[C@@H]3O)[C@H](O)[C@@H](O)[C@@H]2O)[C@H](O)[C@@H](O)[C@H]1O [raffinose]
- Effect on protein synthesis when added back in an equivalent amount to highly functionalized protein synthesis solution [1]: did not show inhibitory effects

Structure (SMILES): OC[C@H]1O[C@@](CO)(O[C@H]2O[C@H](CO)[C@@H](O)[C@H](O)[C@H]2O)[C@@H](O)[C@@H]1O [sucrose]
- Effect on protein synthesis when added back in an equivalent amount to highly functionalized protein synthesis solution [1]: strong inhibitory and destabilization effects
- Time until protein synthesis reaction terminated after adding back [1]: two
- Effect of standard sugar on protein synthesis [1]: strong protein synthesis inhibitory effects
- Concentration of ATP in system after adding sugar (ATP in reaction solution): below the detection limit
